# Experiments:
# isolated rat hearts [1] = experiment: Langendorff perfused isolated rat hearts: electrophysiology and hemodynamics; settings: 10 μM
# Description: Animals: Adult male Sprague-Dawley rats (n=56, 200-250 grams) and Guinea pigs (n=19, 400-700 grams) obtained from Envigo Laboratories (Jerusalem, Israel) were bred and grown in Ben-Gurion University of the Negev, Israel. Experiments in rats and guinea pigs were approved by the institutional ethics committee of Ben-Gurion University of the Negev, Israel (Protocol No. IL-24-05-2020(D) and were carried out in strict accordance with the Guide for the Care and Use of Laboratory Animals of the National Institutes of Health. The animals were kept under standardized conditions: 12:12 light: dark cycles at 20-24° C. and 30-70% relative humidity.
# Perfused isolated hearts—Langendorff method: The isolated heart experiment setup was performed as described in Etzion et al., Am J Physiol Heart Circ Physiol (2008) 295, H1460-1469; and Mor et al., J Pharmacol Exp Ther (2013) 344, 59-67.]. Briefly, each animal was anesthetized with 2% isoflurane and an intraperitoneal (IP) injection of pentobarbital (60 mg/kg), followed by IP injection of Heparin (1000 U/kg). The heart was rapidly excised and placed into ice-cold Tyrode's buffer solution (consisted of 140 mM NaCl, 5.4 mM KCl, 0.5 mM MgCl2, 2.5 mM CaCl2, 0.39 mM NaH2PO4, 10 mM HEPES and 11 mM glucose, and titrated to pH 7.4 with NaOH). The aorta was cannulated and connected to a pre-heated (37° C.) and oxygenated perfusion system with Tyrode's solution while perfusion pressure was maintained at about 70 mmHg throughout the experiment. Prior to the experiment, the heart was left in Tyrode's solution to stabilize for 20 minutes for hemodynamic measurements, the left atrial appendage was excised, and a collapsed latex balloon was inserted into the left ventricle (LV) through the mitral valve. Once positioned, the balloon was filled with double distilled water reaching an end-diastolic pressure of 10-15 mmHg. Coronary perfusion pressure and LV pressure were recorded by a pressure amplifier (ETH-256C amplifier and B-100 probes, iWorx, NH, USA). Electrophysiological signals were recorded from the high right atrium (HRA) via a miniature quadripolar hook electrode (for simultaneous pacing and recording) and from the LV via a bipolar hook electrode. Electrical signals were filtered (1-2 kHz) and recorded by two voltage amplifiers (Model 3000, A-M Systems, Carlsberg, WA, USA). Signals were interfaced with a PC using an A/D converter (PCI-6024E, National Instruments, Austin TX, USA) and a custom-designed program developed with LabVIEW programing language (National Instruments, Austin, TX, USA) to control signal acquisition, data saving and off-line analysis. Measured physiological parameters during the experiment included perfusion flow (ml/minute) as a marker for coronary perfusion pressure, LV developed pressure, dP/dt±(representing the rate of rise of left ventricular pressure during isovolumetric contraction as a marker for LV contractility), heart rate, PR, and RR intervals. Tram-34 and BA6b9 were applied for a 20-minutes incubation period and physiological parameters were recorded.
# Effective refractory period measurements: Using both custom-made quadripolar electrode inserted on the HRA and two bipolar electrodes (recording and pacing) on the LV, allowed measurement of the effective refractory period (ERP) at the atrial level (atrial effective refractory period, AERP), atrioventricular level (AVERP), and ventricular level (VERP). For ERP measurement, a programmed S1S2 stimulation protocol was performed using double diastolic threshold intensity. The protocol consisted of ten S1-S2 intervals of 150 milliseconds (ms) followed by an S1-S2 interval that was reduced by 1 ms each time, until pacing capture failed three consecutive times. AERP, AVERP, and VERP were measured and recorded prior and after exposure to the used inhibitor, either Tram-34 or BA6b9.
# isolated rat hearts [2] = experiment: Atrial fibrillation induction by burst pacing with carbachol in isolated rat hearts
# Description: Atrial Fibrillation induction in Sprague-Dawley rats: For evaluation of Tram-34 and BA6b9 on atrial fibrillation (AF) induction, a custom-made quadripolar electrode was inserted for simultaneous recording and pacing on the HRA. To increase susceptibility for reentry and atrial tachyarrhythmia, the cholinergic agonist carbachol was used. First, baseline AERP was measured under normal physiological conditions, and the measurement was repeated upon exposure to 0.3 μM carbachol, 0.3 μM carbachol+10 μM Tram-34 or 0.3 μM carbachol+10 μM BA6b9. Then, for AF induction, burst pacing was applied to the HRA under increasing pacing thresholds (2×, 3×, 4×, 5×, and 6× threshold). This protocol included two consecutive 5 second bursts at a cycle length of 20 milliseconds for each threshold. This protocol was tested under […] conditions: normal physiological conditions, 0.3 μM carbachol, 0.3 μM carbachol+10 μM Tram-34, or 0.3 μM carbachol+10 μM BA6b9. To determine AF susceptibility under each condition, an AFIS (AF induction score) ranking system was created, relying on the level of threshold intensity when AF induction was successful. Lower AF induction threshold means higher AFIS. The ranking was as follows: induction at 2×-diastolic threshold received the highest score of 5, at 3× the received score was 4, at 4× the received score was 3, at 5× the received score was 2, at 6× the received score was 1, and if no induction occurred it scored zero. For AF sustainability quantification, sustained AF was determined as lasting ≥5 minutes. Non-sustained AF received a score of zero and sustained AF received a score of 1.
compound,measurement,setting,value
"CCCCCCCn1c(=O)oc2ccccc21 [BA6b9, 3-heptylbenzo[d]oxazol-2(3H)-one]",AERP (effect),isolated rat hearts [1],prolonged
same,AVERP (effect),isolated rat hearts [1],prolonged
same,VERP (effect),isolated rat hearts [1],did not change
same,coronary flow (perfusion flow velocity),isolated rat hearts [1],minimal effect
same,left ventricular filling pressure (developed pressure),isolated rat hearts [1],reduced
same,maximal pressure change in left ventricular contractility (dP/dt max),isolated rat hearts [1],does not effect it
same,minimal pressure change in left ventricular contractility (dP/dt min),isolated rat hearts [1],does not effect it
same,AERP,isolated rat hearts [1]; from 56 ms before compound,63 ms
same,PR interval,isolated rat hearts [1]; from 56 ms before compound,68 ms
same,AVERP,isolated rat hearts [1]; from 84 ms before compound,89 ms
same,heart rate,isolated rat hearts [1]; from 228 bpm before compound,196 bpm
same,reduction of AFIS,isolated rat hearts [2]; 10 μM + 0.3 μM carbachol vs carbachol alone,48%
same,AFIS (AF induction score),"isolated rat hearts [2]; 10 μM + 0.3 μM carbachol, 3.1 with carbachol alone",1.6
same,sustained AF induction,"isolated rat hearts [2]; 10 μM + 0.3 μM carbachol, 100% with carbachol alone",70%
same,heart preparations in which AF sustainability was prevented,"isolated rat hearts [2]; 10 μM, burst pacing",30%

# — US20240366571A1, “MODULATORS OF SK4 POTASSIUM CHANNEL AND USES THEREOF” (Ramot at Tel-Aviv University Ltd., priority 2022, published 2024)
